Experimental data from patent US20080118437A1, “Diagnosis and treatment O prostate cancer” (Regents of the University of Michigan, priority 2006, published 2008).

Experiments:
PC-3 cells [1] = assay: Transwell migration assay toward hrCCL2; type: cell-based, human; conditions: hrCCL2 100 ng/mL, 24 hours
Procedure: (§1) Increasing concentrations of CCL2 (1-100 ng/mL) or conditioned media was added to the lower chamber of a 24-well plate. Cells were harvested by EDTA release and resuspended in serum free media at 5×10^4 cells/ml. 2.5×10^4 cells were added to the upper chamber of the transwell insert and incubated for 24 hours at 37° C. and 5% CO^2 atmosphere. At the end of the incubation period, the cells were fixed with 4% formaldehyde in PBS for 5 minutes. Non-adherent cells were removed from inside the inserts with a cotton-tipped applicator. Cells which had migrated to the underside of the insert were stained with 0.5% crystal violet for 5 minutes and rinsed thoroughly with tap water. Inserts were allowed to dry and the cells were counted using an inverted microscope.

VCaP cells [2] = assay: Immunoblot analysis of CCL2 stimulated VCaP cells; type: cell-based, human; conditions: CCL2 100 ng/mL for 24 hours
Procedure: Cells were lysed in RIPA buffer (50 mM Tris-HCl, pH 7.4, 1% NP-40, 150 mM NaCl, 1 mM EDTA, 1 mM PMSF, 1 mM Na3VO4, 1 mM NaF, 1 μM okadaic acid and 1 μg/mL aprotinin, leupeptin and pepstatin). Proteins were separated under reducing conditions by SDS-PAGE and transferred onto nitrocellulose membranes. The membranes were blocked with 5% milk in TBST (0.1% Tween in TBS) for 1 hour at room temperature, then were incubated overnight at 4° C. with primary antibodies. Membranes were washed 3 times prior to incubation with HRP-conjugated secondary antibodies (Cell Signaling) for 1 hour at room temperature. Protein expression was visualized by ECL chemiluminescence (Promega, Madison, Wis.) and quantitated using Image J software (NCl, Bethesda, Md.).

PC-3Luc cells [3] = assay: Bioluminescent in vivo model of metastasis (Examples 1 and 2); design: species or system male SCID mice; conditions: Day 35; 2 mg/Kg twice weekly i.p. from Day 14
Procedure: Bioluminescent in vivo model of metastatsis—Bioluminescent imaging of PC-3^Luc was preformed as previously described through The University of Michigan Small Animal Imaging Resource facility (MSAIR) (Kalikin 2003). Briefly, PC-3Luc cells were introduced into male SCID mice (5-6 wks) by intracardiac injections. Mice were serially imaged weekly for 6 weeks using a CCD IVIS™ system using a 50 mm lens (Xenogen Corp, Alameda, Calif.) and the results were analyzed using […] software (Xenogen Corp.). Mice were separated into one of five groups; 1) PBS control, 2) anti-hIgG control human antibody, 3) anti-cVaM control mouse antibody, 4) anti-MCP1 (human), 5) anti-MCP1/JE (mouse). Treatment began at week 2 post-intracardiac injection and mice received 2 mg/Kg antibody twice weekly by intraperitoneal injection. Mice were injected with luciferin (40 mg/mL) intraperitoneally and ventral images were acquired 15 min post-injection under 1.75% isofluorane/air anesthesia. Total tumor burden of each animal was calculated using regions of interest (ROIs) that encompassed the entire animal. Animals were sacrificed after week 6 image and individual organs were harvested and immediately placed in formalin.

VCaP cells [4] = assay: Fluorescence-based migration assay toward hrMCP-1; type: cell-based, human; conditions: MCP-1 1-100 ng/mL
Procedure: (§2) Flouresence-based Migration Assay—Cell migration was assessed using the Innocyte Cell Migration Assay (Calbiochem, Inc.) following the manufacturer's instructions. Briefly, increasing concentrations of MCP-1 (1-100 ng/mL) in the presence and absence of CCR2 inhibitors or neutralizing antibodies were added to the lower chamber of a 96 well plate. Cells were harvested by 0.5 μM EDTA release and resuspended at 2.5×10^5 cells/mL in serum free media. 2.5×10^4 cells were added to the upper chamber and allowed to migrate through the membrane with 8 μm pores for 24 hours at 37° C. and 5% CO2 atmosphere. Cells that migrated through the membrane were detached and labeled with Calcein AM and fluorescence was measured using fluorescent plate reader with excitation wavelength of 485 nm and emission wavelength of 520 nm. The experiments were repeated twice and each conditioned was performed in quadruplicate in each experiment.

PC-3 cells [5] = assay: Fluorescence-based migration assay toward hrMCP-1; type: cell-based, human; conditions: MCP-1 1-100 ng/mL
Procedure: as §2

mouse CCL2/JE = mouse CCL2/JE (Mus musculus, UniProt P10148); assay: Cross-reactivity / neutralization; type: binding
U937 premonocytic cells = assay: Macrophage migration assay (modified Boyden chamber); type: cell-based, human; conditions: VCaP conditioned media; pre-incubation 30 μg/mL
Procedure: as §1, with “Increasing concentrations of CCL2 (1-100 ng/mL) or conditioned media was added to the lower chamber of a 24-well plate.” left out, “by 0.5 μM” for “by”, “CO2” for “CO^2”, “with” for “with a”, “swabs.” for “applicator.”, “that” for “which”

PC-3Luc cells [6] = assay: Bioluminescent in vivo model of metastasis (Example 4, antibodies and/or docetaxel); design: species or system male SCID mice
Procedure: Bioluminescent imaging of PC-3Luc was preformed as previously described through The University of Michigan Small Animal Imaging Resource facility (MSAIR) (Loberg et al., 2006. Neoplasia. 8:578-586). Briefly, PC-3Luc cells were introduced into male SCID mice (5-6 wks of age) by intracardiac injections. Mice were serially imaged weekly for up to 12 weeks using a CCD IVIS system using a 50 mm lens (Xenogen Corp, Alameda, Calif.) and the results were analyzed using LIVING IMAGE software (Xenogen Corp.). Mice were separated into groups and treatment began at week 2 post-intracardiac injection and mice received 2 mg/Kg antibody twice weekly by intraperitoneal (i.p.) injection (for up to eight weeks) and/or 40 mg/Kg Taxotere i.p. injection once per week for three weeks. Mice were injected with luciferin (40 mg/mL) intraperitoneally and ventral images were acquired 15 min postinjection under 1.75% isofluorane/air anesthesia. Total tumor burden of each animal was calculated using regions of interest (ROIs) that encompassed the entire animal. Animals were sacrificed after week 6 image and individual organs were harvested and immediately placed in formalin.

- cross-reaction with or neutralization of mouse CCL2/JE (mouse CCL2/JE): do not cross-react with or neutralize
Substance: CNTO888: human IgG1κ antibody that neutralizes human CCL2
- hrCCL2-induced migration, mean ±SD (PC-3 cells [1]): 217±29
- CCL2 induced Akt phosphorylation and p44/p42 MAPK phosphorylation (VCaP cells [2]): attenuated
- reduction in overall tumor burden compared to control antibody (PC-3Luc cells [3]): 46.52%
- effect on MCP-1 induced dose dependent migration of VCaP cells (VCaP cells [4]): attenuated
- effect on MCP-1 induced dose dependent migration of PC-3 cells (PC-3 cells [5]): attenuated
- number of migrating U937 cells (U937 premonocytic cells): 225±111
- reduction in overall tumor burden compared to control antibody (PC-3Luc cells [6]; Day 35, 2 mg/Kg twice weekly i.p. for three weeks from Day 14): 46.52%
- reduction in tibia-specific tumor burden (PC-3Luc cells [6]; Day 35, compared to control antibody): 45.49%
- animals of group counted at Wk 6 (tumor regression, Table 2) (PC-3Luc cells [6]; Wk 6 = First week after cessation of Taxotere): 1 of 9
- total tumor burden at Day 35 (PC-3Luc cells [6]; antibodies 2 mg/Kg i.p. twice weekly, docetaxel 40 mg/Kg i.p.): 52.78 % of PBS-treated animals
